Measurements published in article PMC12010006, “Subnanomolar MAS-related G protein-coupled receptor-X2/B2 antagonists with efficacy in human mast cells and disease models” (Signal Transduction and Targeted Therapy, 2025).

Columns and labels:
[1] = tested on: C3a-induced response; assay: Surface expression of CD107a and CD63 (flow cytometry), LAD2 cells activated with C3a; assay type: cell-based, human; settings: 30 nM; C3a 3 nM
Procedure: The granule-associated proteins CD107a and CD63 externalize in the process of degranulation. Their quantification by flow cytometry is a reliable marker of mast cell activation, which is often used for the diagnosis of allergies and anaphylaxis in mast cell activation tests.[49],[50] Thus, the expression of CD107a and CD63 on the cell surface was determined to confirm the effects of PSB-172656 on SP-induced MRGPRX2-mediated degranulation. […] In addition to MRPGRX2, LAD2 cells also express a GPCR that is specifically activated by the complement component C3a.[51] Both receptors can activate Gαi/o proteins to promote MC activation.[48],[52]
MC degranulation was also measured by determining the cell surface expression of CD107a (Lysosomal-Associated Membrane Protein-1, LAMP-1) and CD63 (LAMP-3) after agonist stimulation.[48] LAD2 cells were preincubated with PSB-172656 or vehicle control for 5 min at 37 °C, then activated with SP (0.3 μM) and or C3a (3 nM) for 5 min at 37 °C. After 5 min of incubation, cells were fixed with 500 µL of 4% fixation buffer (Biolegend, Catalog 420801) for 15 min at room temperature. […] Cell surface expression of CD107a and CD63 was measured from the zombie-yellow negative population by a BD LSR II flow cytometer (San Jose, CA, USA) and analyzed by FlowJo software version 10.7.2 (Tree Star Inc., Ashland, OR, USA).[48],[50]

[2] = biological target: T1, MRGPRX2 (Homo sapiens, UniProt Q96LB1); assay: β-hexosaminidase release, primary human skin mast cells; assay type: cell-based
T1 sequence (Q96LB1 1-330): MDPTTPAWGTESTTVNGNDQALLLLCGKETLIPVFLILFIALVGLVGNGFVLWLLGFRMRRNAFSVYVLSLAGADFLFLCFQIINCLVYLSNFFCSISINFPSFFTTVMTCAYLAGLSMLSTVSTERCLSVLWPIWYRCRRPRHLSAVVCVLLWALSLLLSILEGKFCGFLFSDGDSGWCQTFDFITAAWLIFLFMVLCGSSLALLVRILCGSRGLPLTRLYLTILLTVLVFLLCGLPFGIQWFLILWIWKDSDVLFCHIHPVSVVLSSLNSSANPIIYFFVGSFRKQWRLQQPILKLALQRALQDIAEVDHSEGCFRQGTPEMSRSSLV
Procedure: Finally, the effect of the MRGPRX2 antagonist PSB-172656 on MRGPRX2-mediated MC degranulation in primary human skin mast cells isolated from breast skin tissue was investigated. These cells were controlled by flow cytometry for CD117, FcεRI, and MRGPRX2 to ensure their purity (Supplementary Fig. S6), and their functionality was assessed using the MC degranulation β-hexosaminidase release assay (Fig. 6g).
MCs were isolated from breast skin tissue, which was sectioned into strips and digested overnight at 4 °C in 2.4 U/mL dispase type II (Fisher Scientific). […] The purity of the MC cultures was assessed by flow cytometry for CD117 and FcεRI (Miltenyi) and exceeded 95%. […]
For β-hexosaminidase release assays, MCs were fed the day before stimulation with the medium. […] The reaction was stopped by adding 100 µL of sodium carbonate buffer (pH 10.7), and fluorescence was measured at 460 nm and excitation at 355 nm for 0.1 s. The percentage of β-hexosaminidase release was calculated as: […] × 100. […]

CCc1c(C(C)C)[nH]c2nc3cc(F)c(F)cc3n2c1=O [Compound 24, 3-ethyl-7,8-difluoro-2-isopropylbenzo[4,5]imidazo [1,2-a] pyrimidin-4(1H)-one]
effect on C3a-induced expression of CD107a and CD63 [1]: did not affect | inhibition at 1.25 µM ([2]; lowest tested concentration 1.25 µM, versus CST-14, read-out: inhibition of β-hexosaminidase release in human skin MCs): > 50% | effect on MC degranulation in primary human skin mast cells ([2]; versus CST-14 (1 µM)): inhibited MC degranulation in response to CST-14 exposure (1 µM) in a concentration-dependent manner
